In article PMC10771296, “Plectasin: from evolution to truncation, expression, and better druggability” (Frontiers in Microbiology, 2023):
≈ marks a conversion by molar mass, not a printed value. Where a SMILES comes first, the peptide text is derived from it. Bridges are numbered along the chain shown (N, C = ends).

Columns and labels:
S. aureus ATCC43300 [1] = assay: Stability in simulated (artificial) gastric fluid read out as MIC; type: in vitro ADME, Staphylococcus aureus
Method: (§1) The stability of Ple-AB was assessed based on its antibacterial activity against S. aureus ATCC43300. Temperature stability was determined by incubation at 20, 40, 60, 80, and 100°C for 1 h ([Li et al., 2020]). The pH stability was determined by incubation in buffers with a pH of 2, 4, 6, 8, and 10 for 4 h ([Yang et al., 2017]). The peptides were incubated with different concentrations of metal ions, serum, artificial gastric fluid, and simulated intestinal fluid to assess their stability in the blood and intestines ([Lyu et al., 2019]). All the treatments were performed in triplicates.

S. aureus ATCC43300 [2] = assay: Stability in simulated (artificial) intestinal fluid read out as MIC; type: in vitro ADME, Staphylococcus aureus
Method: as §1

Shigella CMCC3926 = assay: MIC, micro broth dilution; type: cell-based; conditions: 1 × 10^5 CFU/mL, repeated thrice
Method: (§2) The minimum inhibitory concentration (MIC) of the peptides was assayed using the micro broth dilution method, which is an important indicator of the antibacterial activity of the AMPs ([Liu et al., 2021]). […] The MIC was defined as the lowest concentration of ones at which no visible bacterial growth was observed. All the assays were repeated thrice.

P. aeruginsoa CICC21630 = assay: MIC, micro broth dilution; type: cell-based; conditions: 1 × 10^5 CFU/mL, repeated thrice
Method: as §2

E. coli O157 = assay: MIC, micro broth dilution; type: cell-based; conditions: 1 × 10^5 CFU/mL, repeated thrice
Method: as §2

For `CC[C@H](C)[C@@H]1NC(=O)[C@H](CO)NC(=O)[C@H](CCCCN)NC(=O)[C@@H]2CSSC[C@@H](C(=O)N[C@@H](Cc3ccc(O)cc3)C(=O)O)NC(=O)[C@H](CCCCN)NC(=O)[C@@H]3CSSC[C@H](NC(=O)[C@H](CCC(N)=O)NC(=O)[C@H](CCSC)NC(=O)[C@H](CCC(=O)O)NC(=O)[C@H](CC(=O)O)NC(=O)[C@H](Cc4c[nH]c5ccccc45)NC(=O)[C@@H]4CCCN4C(=O)[C@@H](NC(=O)CNC(=O)[C@H](Cc4ccccc4)NC(=O)CN)CSSC[C@H](NC(=O)[C@H](Cc4ccc(O)cc4)NC(=O)CNC(=O)CNC(=O)[C@H](CCCCN)NC(=O)[C@H](Cc4ccc(O)cc4)NC(=O)CNC(=O)[C@H](CCCCN)NC1=O)C(=O)N[C@@H](C)C(=O)N[C@@H](CCCCN)C(=O)NCC(=O)NCC(=O)N[C@@H](Cc1ccccc1)C(=O)N[C@@H](C(C)C)C(=O)N3)C(=O)N[C@@H](Cc1c[nH]cn1)C(=O)N[C@@H](CC(N)=O)C(=O)N[C@@H](Cc1c[nH]cn1)C(=O)N2` [Ple-AB] (H-GFGCPWDEMQCHNHCKSIKGYKGGYCAKGGFVCKCY-OH; disulfide 4-26, 11-33, 15-35; N-terminus and C-terminus assumed), the “MIC after Simulated Gastric Fluid” value (S. aureus ATCC43300 [1]; Simulated Gastric Fluid (pepsin), 1-2 h, triplicates) was 16 µg/mL (≈ 4 µM), the “MIC after artificial gastric juice” value (S. aureus ATCC43300 [1]; artificial gastric juice (pepsin), 2 h) was 16 µg/mL (≈ 4 µM) and the “MIC after Artificial Intestinal Fluid” value (S. aureus ATCC43300 [2]; Artificial Intestinal Fluid (trypsin), 1 h, read-out MIC, triplicates) was 32 µg/mL (≈ 8 µM). The “Remaining share of initial activity after simulated intestinal fluids” value (S. aureus ATCC43300 [2]; simulated intestinal fluids (trypsin), 1 h (lasted for 2 h), from MIC) was “approximately 50%”, the MIC (Shigella CMCC3926) was >128 µg/mL and the MIC (P. aeruginsoa CICC21630) was >128 µg/mL. The MIC (E. coli O157) was >128 µg/mL.
